Results reported in patent US5446157A, “Boron difluoride compounds useful in photodynamic therapy and production of laser light” (priority 1993, dated 1995).
Values joined by “and” are separate entries in the source; they are usually repeats but may differ in a detail not shown here. Equal values may be shown once. “Also recorded” adds a separate entry of the source. Where a name gives a salt, the structure may show the parent alone.

Columns and labels:
[1] = UV light absorption (λmax, log ε); format: physicochemical; details: for log ε: solvent as for λmax (ethanol except where noted); for absorption shift: in comparison with 8-substituted peralkylated structures (7b, g, k)
Description: Each recorded UV absorption was restricted to the highest wave length. Fluorescence quantum yields of the dyes were determined for ethanol solutions with excitation at 450 and 460 nm by reference to acridine orange, .PHI.0.46, in ethanol; for the dye 7p the reference was R-6G, <P 0.90. […] Melting points were obtained from a Mel-Temp II device and were uncorrected. The solvent for ^1 H NMR spectra was chloroform-d with tetramethylsilane as an internal standard. Elemental analyses were obtained from Midwest Micro Lab, Indianapolis, Ind. and Galbraith Laboratories, Inc., Knoxville, Tenn. Solvents were removed by rotary evaporation under reduced pressure unless indicated otherwise. Column chromatography was performed on silica gel.
5 × 10^-6 M in ethanol except where noted otherwise.

[2] = Fluorescence (λf, quantum yield); format: physicochemical; details: for .PHI.f (fluorescence quantum yield): ethanol, excitation 450 and 460 nm, reference acridine orange
Description: Instruments for spectroscopic measurements included: Perkin-Elmer 1600 FTIR, Varian Gernini 300 NMR, Hewlett-Packard 5985 (70 eV) GC-MS, Cary 17 (UV), and Perkin-Elmer LS-5B Luminescence spectrometer. A dye laser was constructed and operated in the non-flowing (static) mode and had no tuning capability. […] Laser energy outputs were measured with an accuracy of ±5% by a Scientech 365 power and energy meter.
Light absorption, luminescence, and laser activity properties for the dyes 7 are described in Table VI. Each recorded UV absorption was restricted to the highest wave length. Fluorescence quantum yields of the dyes were determined for ethanol solutions with excitation at 450 and 460 nm by reference to acridine orange, .PHI.0.46, in ethanol; for the dye 7p the reference was R-6G, <P 0.90. Melting points were obtained from a Mel-Temp II device and were uncorrected. The solvent for ^1 H NMR spectra was chloroform-d with tetramethylsilane as an internal standard. Elemental analyses were obtained from Midwest Micro Lab, Indianapolis, Ind. and Galbraith Laboratories, Inc., Knoxville, Tenn. Solvents were removed by rotary evaporation under reduced pressure unless indicated otherwise. Column chromatography was performed on silica gel. Molecular weights were confirmed by EI-MS for the pyrrole 4j 193 and for laser dyes 7d 346, 7e 374, 7g 374, 7i 342, 7j 314 and 7x 360. IR absorption data satisfactorily supported structure assignments for the laser dyes 7.
^[b] 2 × 10^-4 M in ethanol except where noted otherwise.

Structure (SMILES) | log ε [1] | .PHI.f (fluorescence quantum yield) [2] | λmax ([1]; 5 × 10^-6 M in ethanol) | λf ([2]; 2 × 10^-4 M in ethanol) | other results
CCOC(=O)C1=C(C)C2=C(C#N)c3c(C)c(C(=O)OCC)c(C)n3[B-](F)(F)[N+]2=C1C [Compound 7aa, diethyl 1,3,5,7-tetramethyl-8-cyanopyrromethene-2,6-dicarboxylate-BF2 complex] | 4.98 | 0.82 |  |  | λmax ([1]; 2 × 10^-4 M in p-dioxan): 556 nm; λf ([2]; 2 × 10^-4 M in p-dioxan): 589 nm
CCC1=C(C)C2=C(C#N)c3c(C)c(CC)c(C)n3[B-](F)(F)[N+]2=C1C [Compound 7bb, 1,3,5,7-Tetramethyl-2,6-diethyl-8-cyanopyrromethene-BF2 complex] | 4.72 | 0.55 |  |  | λmax ([1]; 2 × 10^-4 M in p-dioxan): 580 nm; λf ([2]; 2 × 10^-4 M in p-dioxan): 620 nm
CCCC1=C(C)C2=C(C)c3c(C)c(CCC)c(C)n3[B-](F)(F)[N+]2=C1C [Compound 7d, 2,6-Di-n-propyl-1,3,5,7,8-pentamethylpyrromethene-BF2 complex] | 4.89 | 0.99 | 517 nm | 549 nm | 
CCCCC1=C(C)C2=C(C)c3c(C)c(CCCC)c(C)n3[B-](F)(F)[N+]2=C1C [Compound 7e] | 4.92 | 0.90 | 518 nm | 550 nm | 
CC1=C(C(C)C)C(C)=[N+]2C1=C(C)c1c(C)c(C(C)C)c(C)n1[B-]2(F)F [Compound 7f] | 4.85 | 0.67 | 516 nm | 548 nm | 
CC1=C(C(C)(C)C)C(C)=[N+]2C1=C(C)c1c(C)c(C(C)(C)C)c(C)n1[B-]2(F)F [Compound 7g] | 4.83 | 0.77 | 525 nm | 567 nm | 
CC1=C2C=C3CCCCC3=[N+]2[B-](F)(F)n2c1cc1c2CCCC1 [Compound 7h, 2,3,6,7-bistetramethylene-8-methylpyrromethene-BF2 complex] | > 4.8 and 4.93 |  | 535 nm | 560 nm | 
CC1=C2CCCCC2=[N+]2C1=C(C)c1c(C)c3c(n1[B-]2(F)F)CCCC3 [Compound 7i] | > 4.8 and 4.91 |  | 522 nm | 552 nm | 
CC1=C2C3=C(CCC3)C(C)=[N+]2[B-](F)(F)n2c(C)c3c(c21)CCC3 [Compound 7j, 1,2,6,7-bistrimethylene-3,5,8-trimethylpyrromethene-BF2 complex] | > 4.8 and 4.82 |  | 512 nm | 535 nm | 
CCC1=C(CC)C(C)=[N+]2C1=C(C)c1c(CC)c(CC)c(C)n1[B-]2(F)F [Compound 7k, 1,2,6,7-tetraethyl-3,5,8-trimethylpyrromethene BF2 complex] | 4.89 | 0.75 | 521 nm | 554 nm | 
CC1=C(c2ccccc2)C(C)=[N+]2C1=C(C)c1c(C)c(-c3ccccc3)c(C)n1[B-]2(F)F [Compound 7l] | 4.90 | 0.43 | 519 nm | 559 nm | 
CCC1=C(C)C2=C(C(C)C)c3c(C)c(CC)c(C)n3[B-](F)(F)[N+]2=C1C [Compound 7p, 1,3,5,7-tetramethyl-2,6-diethyl-8-isopropylpyrromethene-BF2 complex] | 4.84 |  | 527 nm | 562 nm | fluorescence [2]: large reduction in fluorescence; also recorded: absence of fluorescence; .PHI.f ([2]; with reference to R-6G .PHI. 0.90): 0.07
CCC1=C(C)C(=Cc2[nH]c(C)c(CC)c2C)N=C1C [Compound 9, 3,5,3',5'-tetramethyl-4,4'-diethylpyrromethene hydrobromide, reference compound] |  |  |  |  | .PHI.f ([2]; solvent not stated): 4.3×10^-4
CCC1=C(C)C2=Cc3c(C)c(CC)c(C)n3[B-](CC)(CC)[N+]2=C1C [Compound 10, 1,3,5,7-tetramethyl-2,6-diethylpyrromethene-B(CH2 CH3)2 complex, reference compound] |  |  |  |  | .PHI.f ([2]; solvent not stated): 0.31
CCC1=C(C)C2=Cc3c(C)c(CC)c(C)n3[B-](F)(F)[N+]2=C1C [Compound 11] |  |  |  |  | .PHI.f ([2]; solvent not stated): 0.81
Cc1nc2n(c1C)[B-](F)(F)[n+]1c-2[nH]c(C)c1C [Compound 21-BF3] |  |  |  |  | .THETA.f ([2]; Lewis acid salt 21-BF3): 0.93; λf ([2]; Lewis acid salt 21-BF3): 377 nm

Further lines, with some results ahead:

log ε [1] | .PHI.f (fluorescence quantum yield) [2] | λmax ([1]; 5 × 10^-6 M in ethanol) | λf ([2]; 2 × 10^-4 M in ethanol) | Structure (SMILES) | other results
4.63 | 0.17 |  |  | CC(=O)NC1=C(C)C2=C(C)c3c(C)c(NC(C)=O)c(C)n3[B-](F)(F)[N+]2=C1C [Compound 7m] | λmax ([1]; 5 × 10^-6 M in trifluoroethanol): 498 nm; λf ([2]; 2 × 10^-4 M in trifluoroethanol): 542 nm
4.85 | 0.84 | 485 nm | 522 nm | COC1=C(C)C(C)=[N+]2C1=C(C)c1c(OC)c(C)c(C)n1[B-]2(F)F [Compound 7n, 1,7-dimethoxy-2,3,5,6,8-pentamethylpyrromethene-BF2 complex] | 
4.92 | 0.84 | 520 nm | 546 nm | CCC1=C(C)C2=C(CC)c3c(C)c(CC)c(C)n3[B-](F)(F)[N+]2=C1C [Compound 7o, 1,3,5,7-tetramethyl-2,6,8-triethylpyrromethene-BF2 complex] | 
4.81 | 0.23 | 516 nm | 526 nm | CCC1=C(C)C2=C(C3CCCCC3)c3c(C)c(CC)c(C)n3[B-](F)(F)[N+]2=C1C [Compound 7q, 1,3,5,7-tetramethyl-2,6-diethyl-8-cyclohexylpyrromethene-BF2 complex] | 
4.89 | 0.74 | 543 nm | 575 nm | CCC1=C(C)C2=C(COC(C)=O)c3c(C)c(CC)c(C)n3[B-](F)(F)[N+]2=C1C [Compound 7r] | 
4.95 | 0.04 | 519 nm | 575 nm | CCC1=C(C)C2=C(c3ccc(N(C)C)cc3)c3c(C)c(CC)c(C)n3[B-](F)(F)[N+]2=C1C [Compound 7s] | 
4.86 | 0.63 | 497 nm | 521 nm | COc1ccc(C2=C3C(C)=CC(C)=[N+]3[B-](F)(F)n3c(C)cc(C)c32)cc1 [Compound 7t, 1,3,5,7-tetramethyl-8-p-methoxyphenylpyrromethene-BF2 complex] | 
5.00 | 0.60 | 540 nm | 564 nm | CCC1=C(c2ccccc2)C2=Cc3c(-c4ccccc4)c(CC)c(C)n3[B-](F)(F)[N+]2=C1C [Compound 7u] | 
4.91 | 0.69 | 552 nm | 590 nm | CC1=[N+]2C(=Cc3c(-c4ccccc4)c(-c4ccccc4)c(C)n3[B-]2(F)F)C(c2ccccc2)=C1c1ccccc1 [Compound 7v, 1,2,6,7-tetraphenyl-3,5-dimethylpyrromethene-BF2 complex] | 
4.92 | 0.61 | 521 nm | 551 nm | CC1=[N+]2C(=Cc3c(-c4ccccc4)cc(C)n3[B-]2(F)F)C(c2ccccc2)=C1 [Compound 7w, 1,7-diphenyl-3,5-dimethylpyrromethene-BF2 complex] | 
4.93 | 0.84 | 527 nm | 554 nm | CC1=C(C(C)(C)C)C(C)=[N+]2C1=Cc1c(C)c(C(C)(C)C)c(C)n1[B-]2(F)F [Compound 7x, 1,3,5,7-tetramethyl-2,6-di-tert-butylpyrromethene-BF2 complex] | absorption shift [1]: slight bathochromic shift in absorption; fluorescence [2]: erratic effect on fluorescence
4.89 | 0.70 | 529 nm | 554 nm | CCC1=C(CC)C(C)=[N+]2C1=Cc1c(CC)c(CC)c(C)n1[B-]2(F)F [Compound 7y, 1,2,6,7-tetraethyl-3,5-dimethylpyrromethene-BF2 complex] | absorption shift [1]: slight bathochromic shift in absorption; fluorescence [2]: erratic effect on fluorescence
4.84 | 0.56 | 528 nm | 552 nm | CC1=C(C)C(C)=[N+]2C1=Cc1c(C)c(C)c(C)n1[B-]2(F)F [Compound 7z, 1,2,3,5,6,7-hexamethylpyrromethene-BF2 complex] | absorption shift [1]: slight bathochromic shift in absorption; fluorescence [2]: erratic effect on fluorescence
